Each molecule was assayed against T1, PAN domain endonuclease (Influenza A virus, UniProt C3W5S0) (assay: Endonuclease inhibition assay (FRET, FAM/MGBNFQ TaqMan-like probe cleavage by PAN)). Conditions: 25 nM endonuclease, 50 nM probe, 37 degrees Celsius, fluorescence ex 488 nm / em 518 nm.
T1 construct: The PAN domain of 2009 pandemic H1N1 virus polymerase (residues 1-204) has now been crystallized
Type: biochemical, influenza A (2009 pandemic H1N1 virus)
Description: A TaqMan-like oligonucleotide was used containing a 6-carboxy-fluorescein (FAM) fluorophore at the 5′-end followed by 19 nucleotides and a minor groove binding non-fluorescent quencher (MGBNFQ, Applied Biosystems) at the 3′-end. When excited by light at a wavelength of 488 nm, MGBNFQ quenches the fluorescence of FAM via fluorescence resonance energy transfer. If the endonuclease cleaves the oligonucleotide, the quencher is no longer coupled to the fluorophore, and therefore, FAM fluoresces. This assay can be performed in a high-throughput (e.g. 96 well plate) format. The assay can be used to evaluate the inhibitory characteristics of compounds that are found to bind PAN and to screen libraries of drug-like compounds. The assay uses the probe 6FAM-[…]-MGBNFQ (SEQ ID NO: 1)
The assay can be performed in a 40 μl reaction volume with 50 mM Tris pH 7.5, 50 mM NaCl, 1 mM MgSO4, 0.5 mM MnSO4, 1 mM DTT, 0.75 mM CHAPS, 50 nM probe, and 25 nM endonuclease.
The reaction mixture is set up as a master mix with the buffer, probe, and protein on ice. The inhibitor is then added to a maximum DMSO concentration of 2.5% (v/v) and serial dilutions are made on ice. Varioskan Fluorometer (Thermo Scientific), set to an excitation of 488 nm and emission of 518 nm, is used to measure the fluorescence of the samples at 37 degrees Celsius. Fluorescence is measured at various time points (5, 120, and 240 minutes) during the 37 degrees Celsius incubation. Activity/inhibition is calculated based on the change in fluorescence over time using Prism Graphpad non-linear regression analysis.

Row | Compound | IC50
1 | Oc1cc(-c2ccc(F)cc2)c(-c2ccc(F)cc2)cc1O [Example 1] | 390 nM
2 | O=[N+]([O-])c1c(O)c(O)cc(-c2ccc(F)cc2)c1-c1ccc(F)cc1 [Example 2] | 434 nM
3 | N#Cc1ccc(-c2cc(O)c(O)cc2-c2ccc(C#N)cc2)cc1 [Example 3, 4′,5′-dihydroxy-[1,1′:2′,1″-terphenyl]-4,4″-dicarbonitrile] | 395 nM
4 | N#Cc1ccc(-c2cc(O)c(O)c([N+](=O)[O-])c2-c2ccc(C#N)cc2)cc1 [Example 4] | 194 nM
5 | N#Cc1ccc(-c2cc(O)c(O)cc2-c2ccc(F)cc2)cc1 [Example 5, 4″-fluoro-4′,5′-dihydroxy-[1,1′:2′,1″-terphenyl]-4-carbonitrile] | 290 nM
6 | Oc1cc(-c2ccc(F)cc2)c(-c2ccc(-c3nnn[nH]3)cc2)cc1O [Example 6] | 425 nM
7 | Oc1cc(-c2ccc(-c3nnn[nH]3)cc2)c(-c2ccc(-c3nnn[nH]3)cc2)cc1O [Example 7] | 847 nM

— patent US9695135B2, “Therapeutic catechols” (priority 2014, dated 2017)
